Measured values reported in ChEMBL document CHEMBL2176963, “Design, synthesis, and biological evaluation of 3-(1H-1,2,3-triazol-1-yl)benzamide derivatives as Potent Pan Bcr-Abl inhibitors including the threonine(315)→isoleucine(315) mutant” (J Med Chem, 2012).

Assays:
[1] = Antiproliferative activity against mouse BA/F3 cells expressing wild type Bcr-Abl after 72 hrs by CCK-8 assay; conditions: BaF3, 72 h
cells = conditions: Mus musculus, BaF3, 72 h
K562 [2] = test: Antiproliferative activity against human K562 cells expressing wild type Bcr-Abl after 72 hrs by CCK-8 assay; conditions: K562, 72 h
K562 [3] = test: Antiproliferative activity against imatinib-resistant human K562 cells expressing Bcr-Abl Q252H mutant after 72 hrs by CCK-8 assay; conditions: K562, 72 h
[4] = Antiproliferative activity against human KU812 cells expressing wild type Bcr-Abl after 72 hrs by CCK-8 assay; conditions: KU812, 72 h

Row | Structure (SMILES) | IC50 [1] | IC50 (cells) | IC50 (K562 [2]) | IC50 (K562 [3]) | IC50 [4]
1 | CN1CCN(Cc2ccc(NC(=O)c3ccc(C4CC4)c(-n4cc(-c5cnc6[nH]ncc6c5)nn4)c3)cc2C(F)(F)F)CC1 | 32.9 nM | 1160 nM | 5.69 nM | 37.5 nM | 4.05 nM
2 | Cc1ccc(C(=O)Nc2ccc(CN3CCC(N4CCN(C)CC4)CC3)c(C(F)(F)F)c2)cc1-n1cc(-c2cnc3[nH]ncc3c2)nn1 | 23.8 nM | 873 nM | 1.25 nM | 4.32 nM | 1.48 nM
3 | Cc1ccc(C(=O)Nc2ccc(CN3CCN(C)CC3)c(C(F)(F)F)c2)cc1-n1cc(-c2cnc(NC(C)C)nc2)nn1 | 32.8 nM | 799 nM | 7.26 nM | 81.2 nM | 1.44 nM
4 | Cc1ccc(C(=O)Nc2ccc(CN3CCN(C)CC3)c(C(F)(F)F)c2)cc1-n1cc(-c2cnc3ncccn23)nn1 | 47.9 nM | 8840 nM | 3.87 nM | 16.2 nM | 11.1 nM
5 | Cc1ccc(C(=O)Nc2ccc(CN3CCN(C)CC3)c(C(F)(F)F)c2)cc1-n1cc(-c2cnn3cccnc23)nn1 | 7.31 nM | 1440 nM | 2.45 nM | 17.1 nM | 1.51 nM
6 | Cc1ccc(C(=O)Nc2ccc(CN3CCN(C)CC3)c(C(F)(F)F)c2)cc1-n1cc(-c2cnc3[nH]ccc3c2)nn1 | 3.16 nM | 66.9 nM | 0.42 nM | 3.89 nM | 0.14 nM
7 | CN1CCN(Cc2ccc(NC(=O)c3ccc(F)c(-n4cc(-c5cnc6[nH]ncc6c5)nn4)c3)cc2C(F)(F)F)CC1 | 3.9 nM | 130 nM | 0.24 nM | 2.28 nM | 0.1 nM
8 | Cc1ccc(C(=O)Nc2ccc(CN3CCN(C)CC3)c(C(F)(F)F)c2)cc1-n1cc(-c2cnc(NCc3ccccc3)nc2)nn1 | 28.2 nM | 3500 nM | 8.82 nM | 181 nM | 1.89 nM
9 | Cc1ccc(C(=O)Nc2ccc(CN3CCN(C)CC3)c(C(F)(F)F)c2)cc1-n1cc(-c2ccc3[nH]ccc3c2)nn1 | 435 nM | 999 nM | 70.4 nM | 800 nM | 19.6 nM
10 | Cc1ccc(C(=O)Nc2ccc(CN3CC[C@@H](N(C)C)C3)c(C(F)(F)F)c2)cc1-n1cc(-c2cnc3[nH]ncc3c2)nn1 | 3.43 nM | 544 nM | 0.31 nM | 3.15 nM | 0.24 nM
11 | Cc1ccc(C(=O)Nc2ccc(CN3CCN(C)CC3)c(C(F)(F)F)c2)cc1-n1cc(-c2cnc(NC3CCCCC3)nc2)nn1 | 28.3 nM | 3630 nM | 7.04 nM | 72.8 nM | 1.57 nM
12 | CN1CCN(Cc2ccc(NC(=O)c3ccc(Br)c(-n4cc(-c5cnc6[nH]ncc6c5)nn4)c3)cc2C(F)(F)F)CC1 | 3.28 nM | 46.4 nM | 0.23 nM | 1.49 nM | 0.1 nM
13 | Cc1ccc(C(=O)Nc2ccc(CN3CCN(C)CC3)c(C(F)(F)F)c2)cc1-n1cc(-c2cnc3cccnn23)nn1 | 27.4 nM | > 10000 nM | 35.8 nM | 1.41 nM | 14.6 nM
14 | Cc1ccc(C(=O)Nc2ccc(CN3CCN(C)CC3)c(C(F)(F)F)c2)cc1-n1cc(-c2cnc3ncnn3c2)nn1 | 316 nM | 533 nM | 40.9 nM | 76.8 nM | 11.2 nM
15 | Cc1ccc(C(=O)Nc2ccc(CN3CCCC3)c(C(F)(F)F)c2)cc1-n1cc(-c2cnc3[nH]ncc3c2)nn1 | 2.47 nM | 939 nM | 0.66 nM | 12.1 nM | 0.19 nM
16 | Cc1ccc(C(=O)Nc2ccc(CN3CCN(C)CC3)c(C(F)(F)F)c2)cc1-n1cc(-c2cnc3ccccn23)nn1 | 4.54 nM | 178 nM | 0.63 nM | 1.85 nM | 0.16 nM

Row | Structure (SMILES) | IC50 [1] | IC50 (cells) | IC50 (K562 [2]) | IC50 (K562 [3]) | IC50 [4]
17 | CN1CCN(Cc2ccc(NC(=O)c3cccc(-n4cc(-c5cnc6[nH]ncc6c5)nn4)c3)cc2C(F)(F)F)CC1 | 3.98 nM | 728 nM | 0.67 nM | 10.8 nM | 1.34 nM
18 | Cc1ccc(C(=O)Nc2ccc(CN3CCC(N(C)C)CC3)c(C(F)(F)F)c2)cc1-n1cc(-c2cnc3[nH]ncc3c2)nn1 | 2.76 nM | 527 nM | 0.67 nM | 6.56 nM | 0.43 nM
19 | CNc1ncc(-c2cn(-c3cc(C(=O)Nc4ccc(CN5CCN(C)CC5)c(C(F)(F)F)c4)ccc3C)nn2)cn1 | 2.74 nM | 299 nM | 0.67 nM | 11 nM | 0.16 nM
20 | Cc1ccc(C(=O)Nc2ccc(CN3CCOCC3)c(C(F)(F)F)c2)cc1-n1cc(-c2cnc3[nH]ncc3c2)nn1 | 4.46 nM | 1560 nM | 3.41 nM | 41.1 nM | 0.46 nM
21 | Cc1ccc(C(=O)Nc2cc(-n3cncn3)cc(C(F)(F)F)c2)cc1-n1cc(-c2cnc3[nH]ncc3c2)nn1 | 4.54 nM | 652 nM | 3.5 nM | 21.9 nM | 0.46 nM
22 | Cc1ncn(-c2cc(NC(=O)c3ccc(C)c(-n4cc(-c5cnc6[nH]ncc6c5)nn4)c3)cc(C(F)(F)F)c2)n1 | 3.68 nM | 620 nM | 2.9 nM | 34.2 nM | 0.4 nM
23 | Cc1ccc(C(=O)Nc2ccc(CN3C[C@H]4CN(C)C[C@H]4C3)c(C(F)(F)F)c2)cc1-n1cc(-c2cnc3[nH]ncc3c2)nn1 | 3.66 nM | 473 nM | 0.25 nM | 3.55 nM | 0.4 nM
24 | CCNc1ncc(-c2cn(-c3cc(C(=O)Nc4ccc(CN5CCN(C)CC5)c(C(F)(F)F)c4)ccc3C)nn2)cn1 | 3.04 nM | 405 nM | 1.26 nM | 20.2 nM | 0.2 nM
25 | Cc1ccc(C(=O)Nc2ccc(CN3CCN(C)CC3)c(C(F)(F)F)c2)cc1-n1cc(-c2cnc(NC3CC3)nc2)nn1 | 3.01 nM | 579 nM | 1.24 nM | 19.2 nM | 0.22 nM
26 | Cc1ccc(C(=O)Nc2ccc(CN3CCN(C)CC3)c(C(F)(F)F)c2)cc1-n1cc(-c2cnc(N)nc2)nn1 | 3.35 nM | 494 nM | 0.85 nM | 17.1 nM | 0.2 nM
27 | Cc1cn(-c2cc(NC(=O)c3ccc(C)c(-n4cc(-c5cnc6[nH]ncc6c5)nn4)c3)cc(C(F)(F)F)c2)cn1 | 4.72 nM | 656 nM | 3.37 nM | 25.7 nM | 0.73 nM
28 | CCc1ccc(C(=O)Nc2ccc(CN3CCN(C)CC3)c(C(F)(F)F)c2)cc1-n1cc(-c2cnc3[nH]ncc3c2)nn1 | 4.04 nM | 282 nM | 0.85 nM | 8.96 nM | 0.39 nM
29 | Cc1ccc(C(=O)Nc2ccc(CN3CCN(C)CC3)c(C(F)(F)F)c2)cc1-n1cc(-c2cnc(N3CCCCC3)nc2)nn1 | 1240 nM | 3590 nM | 798 nM | 893 nM | 158 nM
30 | Cc1ccc(C(=O)Nc2ccc(CN3CCN(C)CC3)c(C(F)(F)F)c2)cc1-n1cc(-c2cnc3[nH]nc(C)c3c2)nn1 | 2.03 nM | 79.6 nM | 0.39 nM | 4.74 nM | 0.15 nM
31 | CC(C)c1ccc(C(=O)Nc2ccc(CN3CCN(C)CC3)c(C(F)(F)F)c2)cc1-n1cc(-c2cnc3[nH]ncc3c2)nn1 | 420 nM | 2060 nM | 74 nM | 219 nM | 14.2 nM
